Reference: US20210323977A1, “PYRROLIDINYL AMIDE COMPOUNDS FOR THE TREATMENT OF AUTOIMMUNE DISEASE” (Hoffmann-La Roche Inc., priority 2018, published 2021)

Biological target: T1, human TLR9 (Homo sapiens, UniProt Q9NR96)
T1 sequence (Q9NR96 26-1032): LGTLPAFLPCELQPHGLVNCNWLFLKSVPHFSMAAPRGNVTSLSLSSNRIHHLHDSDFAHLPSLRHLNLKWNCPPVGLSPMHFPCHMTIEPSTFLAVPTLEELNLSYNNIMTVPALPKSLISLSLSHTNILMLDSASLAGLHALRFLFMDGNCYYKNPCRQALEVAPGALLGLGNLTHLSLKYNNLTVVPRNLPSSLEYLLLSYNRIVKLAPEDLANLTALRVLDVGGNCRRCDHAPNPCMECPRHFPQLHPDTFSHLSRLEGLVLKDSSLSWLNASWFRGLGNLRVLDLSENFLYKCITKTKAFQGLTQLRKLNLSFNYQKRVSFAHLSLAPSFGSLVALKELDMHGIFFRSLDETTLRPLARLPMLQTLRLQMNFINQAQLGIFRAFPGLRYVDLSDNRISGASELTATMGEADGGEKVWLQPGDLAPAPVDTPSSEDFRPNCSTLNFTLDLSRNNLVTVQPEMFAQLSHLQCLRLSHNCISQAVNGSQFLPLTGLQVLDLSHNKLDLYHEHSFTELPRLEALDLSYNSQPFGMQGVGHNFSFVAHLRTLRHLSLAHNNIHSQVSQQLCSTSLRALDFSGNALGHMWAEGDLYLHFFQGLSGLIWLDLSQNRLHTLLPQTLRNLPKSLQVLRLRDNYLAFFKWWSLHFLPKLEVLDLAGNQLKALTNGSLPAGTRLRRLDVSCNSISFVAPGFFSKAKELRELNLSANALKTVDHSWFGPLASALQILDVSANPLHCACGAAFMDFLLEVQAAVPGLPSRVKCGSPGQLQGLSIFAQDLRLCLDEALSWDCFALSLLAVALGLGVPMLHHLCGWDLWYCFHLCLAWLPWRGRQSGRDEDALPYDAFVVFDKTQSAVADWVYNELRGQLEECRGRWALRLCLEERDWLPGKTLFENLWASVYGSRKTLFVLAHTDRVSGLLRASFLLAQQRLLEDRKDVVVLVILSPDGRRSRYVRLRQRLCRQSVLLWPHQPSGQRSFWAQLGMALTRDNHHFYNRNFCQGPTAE
Experiment: HEK293-Blue-hTLR-9 cells assay
Type: cell-based
Conditions: HEK293-Blue-hTLR9 cells, SEAP reporter, ODN2006 stimulation, 20 hrs
From the text: HEK293-Blue-hTLR-9 Cells Assay:
A stable HEK293-Blue-hTLR-9 cell line was purchased from InvivoGen (Cat. #: hkb-htlh9, San Diego, Calif., USA). These cells were originally designed for studying the stimulation of human TLR9 by monitoring the activation of NF-κB. A SEAP (secreted embryonic alkaline phosphatase) reporter gene was placed under the control of the IFN-β minimal promoter fused to five NF-κB and AP-1-binding sites. The SEAP was induced by activating NF-κB and AP-1 via stimulating HEK-Blue hTLR9 cells with TLR9 ligands. Therefore the reporter expression was declined by TLR9 antagonist under the stimulation of a ligand, such as ODN2006 (Cat. #: tlrl-2006-1, Invivogen, San Diego, Calif., USA), for incubation of 20 hrs. The cell culture supernatant SEAP reporter activity was determined using QUANTI-Blue™ kit (Cat. #: rep-qb1, Invivogen, San Diego, Calif., USA) at a wavelength of 640 nm, a detection medium that turns purple or blue in the presence of alkaline phosphatase.
HEK293-Blue-hTLR9 cells were incubated at a density of 250,000-450,000 cells/mL in a volume of 170 μL in a 96-well plate in Dulbecco's Modified Eagle's medium (DMEM) containing 4.5 g/L glucose, 50 U/mL penicillin, […], […], 2 mM L-glutamine, 10% (v/v) heat-inactivated fetal bovine serum with addition of 20 sL test compound in a serial dilution in the presence of final DMSO at 1% and 10 sL of 20 uM ODN2006 in above DMEM, perform incubation under 37° C. in a CO2 incubator for 20 hrs. Then 20 sL of the supernatant from each well was incubated with 180 μL Quanti-blue substrate solution at 37° C. for 2 hrs and the absorbance was read at 620-655 nm using a spectrophotometer. The signalling pathway that TLR9 activation leads to downstream NF-x3B activation has been widely accepted, and therefore similar reporter assay was modified for evaluating TLR9 antagonist.

Row | IC50 [µM] | SMILES
1 | 4.3 | N#Cc1ccc(N2C[C@H](C(=O)NC3CCN(C4CCNCC4)CC3)[C@@H](C(F)(F)F)C2)c2nccnc12 [Example 35, (3R,4R)-1-(8-Cyanoquinoxalin-5-yl)-N-[1-(4-piperidyl)-4-piperidyl]-4-(trifluoromethyl)pyrrolidine-3-carboxamide]
2 | 12.3 | NC1CC(NC(=O)C2CN(c3ccc(C(F)(F)F)c4nccnc34)CC23CC3)C1 (stereo not drawn) [Example 38, N-(3-Aminocyclobutyl)-5-[8-(trifluoromethyl)quinoxalin-5-yl]-5-azaspiro[2.4]heptane-7-carboxamide]
3 | 16.7 | O=C(NC1CC2(CCNCC2)C1)C1CN(c2ccc(C(F)(F)F)c3nccnc23)CC12CC2 (stereo not drawn) [Example 34, N-(7-azaspiro[3.5]nonan-2-yl)-5-[8-(trifluoromethyl)quinoxalin-5-yl]-5-azaspiro[2.4]heptane-7-carboxamide]
4 | 27.8 | N[C@H]1CC[C@H](NC(=O)C2CN(c3ccc(C(F)(F)F)c4nccnc34)CC23CC3)CC1 (stereo partly drawn) [Example 24, N-(4-aminocyclohexyl)-5-[8-(trifluoromethyl)quinoxalin-5-yl]-5-azaspiro[2.4]heptane-7-carboxamide]

Row | SMILES | IC50 [µM]
5 | N#Cc1ccc(N2CC(C(=O)NC[C@H]3CNCCO3)C3(CC3)C2)c2nccnc12 (single isomer, unassigned) [Example 70B] | 2.8
6 | CC(C)[C@@H]1CN(c2ccc(C#N)c3ncccc23)C[C@H]1C(=O)NC1CCN(C)CC1 (relative stereo) [Example 37, Trans-1-(8-cyano-5-quinolyl)-4-isopropyl-N-(1-methyl-4-piperidyl)pyrrolidine-3-carboxamide] | 5.2
